According to article PMC2360155, “Novel retinoic acid metabolism blocking agents have potent inhibitory activities on human breast cancer cells and tumour growth” (British Journal of Cancer, 2007):

Columns and labels:
RARγ = biological target: T1, RARγ (Mus musculus, UniProt P18911); test: Retinoid receptor competition binding assay, RARγ; conditions: competition with 1.0 nM [3H]-all-trans-RA
T1 construct: expressed in transfected cells; host or cells: CV-1 cells
T1 sequence (P18911 1-458): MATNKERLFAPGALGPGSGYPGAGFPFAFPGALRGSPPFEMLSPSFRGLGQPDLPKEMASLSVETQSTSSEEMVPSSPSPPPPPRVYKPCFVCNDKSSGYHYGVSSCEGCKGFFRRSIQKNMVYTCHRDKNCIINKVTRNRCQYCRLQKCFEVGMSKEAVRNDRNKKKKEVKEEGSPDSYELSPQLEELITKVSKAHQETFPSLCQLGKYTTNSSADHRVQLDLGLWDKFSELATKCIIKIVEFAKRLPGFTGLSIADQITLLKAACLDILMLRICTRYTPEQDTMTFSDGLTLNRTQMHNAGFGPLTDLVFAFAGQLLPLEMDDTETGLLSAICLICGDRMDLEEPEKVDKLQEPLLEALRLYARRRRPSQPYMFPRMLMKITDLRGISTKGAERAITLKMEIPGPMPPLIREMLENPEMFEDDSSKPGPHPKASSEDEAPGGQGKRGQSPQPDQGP

RARβ = biological target: T2, RARβ (Mus musculus, UniProt P22605); test: Retinoid receptor competition binding assay, RARβ; conditions: competition with 1.0 nM [3H]-all-trans-RA
T2 construct: expressed in transfected cells; host or cells: CV-1 cells
T2 sequence (P22605 1-448 isoform P22605-3): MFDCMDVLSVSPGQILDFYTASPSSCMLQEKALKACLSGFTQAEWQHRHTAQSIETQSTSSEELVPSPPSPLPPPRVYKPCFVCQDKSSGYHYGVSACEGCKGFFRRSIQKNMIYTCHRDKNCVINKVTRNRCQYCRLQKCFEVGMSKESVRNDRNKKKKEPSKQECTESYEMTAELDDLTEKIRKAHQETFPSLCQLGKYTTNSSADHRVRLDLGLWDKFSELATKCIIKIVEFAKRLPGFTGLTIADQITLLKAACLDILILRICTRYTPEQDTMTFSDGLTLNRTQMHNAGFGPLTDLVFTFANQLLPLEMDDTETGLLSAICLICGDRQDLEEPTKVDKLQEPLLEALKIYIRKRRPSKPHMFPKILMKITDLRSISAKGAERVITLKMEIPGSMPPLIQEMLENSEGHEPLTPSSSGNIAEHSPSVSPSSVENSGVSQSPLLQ

RARα = biological target: T3, RARα (Mus musculus, UniProt P11416); test: Retinoid receptor competition binding assay, RARα; design: The full-length cDNA clones for RARα, RARβ, RARγ and RXRα were cloned into the prokaryotic expression vector pET29; S-Tag; made in house; host or cells: prokaryotic host (pET29 vector); conditions: competition with 1.0 nM [3H]-all-trans-RA
T3 sequence (P11416 1-462): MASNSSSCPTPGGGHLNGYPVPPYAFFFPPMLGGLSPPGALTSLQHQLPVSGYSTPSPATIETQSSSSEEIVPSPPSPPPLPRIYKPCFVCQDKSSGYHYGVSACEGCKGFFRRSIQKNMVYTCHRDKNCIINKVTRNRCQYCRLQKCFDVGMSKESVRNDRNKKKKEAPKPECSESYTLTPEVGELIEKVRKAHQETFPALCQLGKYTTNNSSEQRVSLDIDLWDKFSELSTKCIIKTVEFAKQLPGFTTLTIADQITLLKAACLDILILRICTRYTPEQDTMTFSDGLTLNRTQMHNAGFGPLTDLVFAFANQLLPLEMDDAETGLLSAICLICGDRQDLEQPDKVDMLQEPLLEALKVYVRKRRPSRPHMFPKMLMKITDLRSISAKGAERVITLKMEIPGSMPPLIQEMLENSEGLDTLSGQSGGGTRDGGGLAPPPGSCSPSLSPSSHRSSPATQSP

CRABPI = biological target: T4, CRABPI (Mus musculus, UniProt P62965); test: CRABP competition binding assay, CRABPI; conditions: competition with [3H]-all-trans-RA; read-out: CRAPBI IC50
T4 construct: Wild-type full-length cDNAs for mouse CRABPI and CRABPII were subcloned into the prokaryotic expression vector pRSETB; pRSETB vector fusion leader (purified on Ni-NTA, so a His tag); made in house; host or cells: Escherichia coli BL21(DE3)pLys
T4 sequence (P62965 whole entry, the tested form may be a part): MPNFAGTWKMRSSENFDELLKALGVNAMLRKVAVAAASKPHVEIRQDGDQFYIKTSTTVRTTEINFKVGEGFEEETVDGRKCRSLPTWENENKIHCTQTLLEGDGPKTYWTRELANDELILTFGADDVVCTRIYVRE
Procedure: IC50 values were calculated as described above in the RAR binding studies.

T47D cells = test: Cell cycle analysis by flow cytometry (PI), T47D; type: cell-based, human; conditions: 5 μM, 6 days (4-HPR 4 days)
Procedure: MCF-7 and T47D cells were plated in T-25 flasks and allowed to adhere for about 18 h. The cells were then synchronised by growing them in low-serum OPTI-MEM I medium for 2 days. […] After 6-day treatment, the cells were trypsinised, washed twice with PBS, centrifuged at 2500 r.p.m. to obtain a cell pellet. The cells (about 1–2 × 10^6) were fixed with 3 ml of 70% ethanol (by adding drop-wise and taking care that the cells are not clumped together). Cells were kept at −20°C until further analysis (at least overnight). Next, cells (∼1–2 × 10^6) were stained with 1 ml of propidium iodide (PI) (50 μg ml^−1)/RNase (100 μg ml^−1) solution and after about half an hour the fluorescence of stained nuclei (15 000 events) was analysed by flow cytometry (Becton Dickinson FACScan Instrument and quantification by Modfit LT version 3.1 software) with excitation wavelength of 488 nm. The percentage of G1, S, G2/M and sub-G1 (apoptotic cells) in the population of treated and untreated cells were determined.

CRABPII = biological target: T5, CRABPII (Mus musculus, UniProt P22935); test: CRABP competition binding assay, CRABPII; conditions: for IC50: competition with [3H]-all-trans-RA
T5 construct: Wild-type full-length cDNAs for mouse CRABPI and CRABPII were subcloned into the prokaryotic expression vector pRSETB; pRSETB vector fusion leader (purified on Ni-NTA, so a His tag); made in house; host or cells: Escherichia coli BL21(DE3)pLys
T5 sequence (P22935 1-138): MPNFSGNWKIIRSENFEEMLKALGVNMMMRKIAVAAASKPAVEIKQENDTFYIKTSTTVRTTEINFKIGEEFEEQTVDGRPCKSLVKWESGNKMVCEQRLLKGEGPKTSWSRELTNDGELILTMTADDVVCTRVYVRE
Procedure: Wild-type full-length cDNAs for mouse CRABPI and CRABPII were subcloned into the prokaryotic expression vector pRSETB and transformed into Escherichia coli strain BL21(DE3)pLys ([Chen et al, 1995]). Recombinant fusion proteins were prepared essentially as we have described previously using Ni-NTA resin ([Chen et al, 1995]). The binding of each RAMBA to CRABPI and CRABPII was determined by competition binding assays as described previously ([Chen et al, 1995]). […] IC50 values were calculated as described above in the RAR binding studies.

| SMILES | IC50 (RARγ) [µM] | IC50 (RARβ) [µM] | IC50 (RARα) [µM] | IC50 (CRABPI) [µM] | G2/M (%) (T47D cells) | Go/G1 (%) (T47D cells) | S (%) (T47D cells) | Sub-G1 (%) (T47D cells) | IC50 (CRABPII) [µM] | Kd (CRABPII; for comparison) [µM] |
| --- | --- | --- | --- | --- | --- | --- | --- | --- | --- | --- |
| CC1=C(/C=C/C(C)=C/C=C/C(C)=C/C(=O)O)C(C)(C)CCC1n1ccnc1 (centres unmarked) [VN/14-1] | 0.016 | 0.2 | 0.016 | > 0.5 | 20.85±3.75 | 77.98±2.56 | 1.18±1.0 | 22.38±2.95 | > 0.5 |  |
| CC1=C(/C=C/C(C)=C/C=C/C(C)=C/C(=O)O)C(C)(C)CCC1 [ATRA, all-trans-retinoic acid, reference compound] |  |  |  |  | 13.03±4.06 | 83.89±0.96 | 3.1±1.3 | 17.12±4.06 |  | 0.06 |
| CC1=C(/C=C/C(C)=C/C=C/C(C)=C/C(=O)Nc2ccc(O)cc2)C(C)(C)CCC1n1ccnc1 (centres unmarked) [VN/66-1] | > 1 | > 1 | > 1 | > 0.5 | 19.57±0.21 | 80.44±0.20 | 0 | 26.41±1.18 | > 0.5 |  |
| CC1=C(/C=C/C(C)=C/C=C/C(C)=C\C(=O)Nc2ccc(O)cc2)C(C)(C)CCC1n1ccnc1 (centres unmarked) [VN/69-1] | > 1 | > 1 | > 1 | > 0.5 | 21.01±0.99 | 78.99±0.99 | 0 | 24.34±1.24 | > 0.5 |  |
